Reference: patent US11273136B2, “Method for increasing protein content in milk of lactating cows” (neopharma Japan Co., Ltd., priority 2019, dated 2022)

System: lactating Holstein milk cows
Test: Crossover feeding test of 5-ALA-supplemented total mixed ration on milk yield and milk composition of lactating cows
Assay type: in vivo
Excerpt: Effects of ALAs on the milk composition of a lactating cow was studied. Six lactating Holstein milk cows (average body weight 698±18 kg, average milk production 24.1±1.6 kg/d, average days-in-milk (DIM) 209±34 days, and average number of lactations 2.9±0.4) were placed in a free stable. After a 7-day grace period, 6 cows were randomly assigned to section A and section B (each group n=3). Section A had, after a grace period, an ALA administration period of 14 days (ALA Consumption Group A), with an adjustment period of 7 days interposed, followed by an ALA non-administration period of 14 days (Control Group A), whereas Section B had, after a grace period, an ALA non-administration period of 14 days (Control Group B), with an adjustment period of 7 days interposed, followed by an ALA administration period of 14 days (ALA Consumption Group B), whereby the test was carried out by the crossover method. A total mixed ration (TMR) (see Table 2) which had been used was fed during the above grace period, adjustment period and ALA non-administration period, and a feed to which 10 mg of 5-ALA was added per kg of the total mixed ration (TMR) was fed during the ALA administration period.
5-ALA was provided by neopharma Japan Co., Ltd. Each feed and water were available at any time but feed consumption of each group on a dry base was 23.4 kg/day per cow in the control groups and 23.6 kg/day per cow in the ALA groups. Thus, the daily consumption of 5-ALA in the ALA groups was 0.329.6 mg to 0.347.1 mg/kg b.w./day. Each of the milk cows was milked at 09:00 and 17:00 and allowed to consume each feed at any time after milking.
Amounts of Milking from each cow were automatically recorded everyday by an auto milk recorder (manufactured by ORION MACHINERY CO., LTD.). Additionally, for each group of Section A and Section B, during the last 2 days in the ALA administration period of 14 days and the non-administration period of 14 days, 50 to 100 mL of milk was collected twice a day from cows of each period to use as milk samples for data analysis. The milk samples were preserved at −30° C. until the milk composition and the like were analyzed.
Using the above milk samples collected from each of the cows, the milk composition such as milk fat, proteins, casein, lactose, total solid (TS), solid not fat (SNF), milk urea nitrogen (MUN) and somatic cell count (SCC) was measured using a […] infrared spectroscopy (Milko-Scan, 133N, manufactured by Foss Electric, Hill-erod (Denmark)). Data of each cow were calculated as an average value of 4 milk samples collected for 2 days. For each group of Section A and Section B, the data average of the ALA administration periods (ALA Group A and ALA Group B) was shown under the item of ALA consumption groups, and the data average of the non-administration periods (Control Group A and Control Group B) was shown under the item of Control groups. The data were analyzed statistically as a crossover design using the mixing procedure of SPSS (PASW Statistics 18.0, manufactured by IBM). Statistical analysis of each result was carried out by mixed model and p<0.05(*) meant statistically significant difference. A tendency toward significance was considered at p<0.10.

[1] = 10 mg 5-ALA per kg TMR, 14 days, milk of last 2 days, ± standard error
[2] = 10 mg 5-ALA per kg TMR, 14 days, milk of last 2 days, ± standard error, p<0.05 vs control
[3] = feed to which 5-ALA was added, p<0.05

Q: Which Milk yield (10 mg 5-ALA per kg TMR fed for 14 days, crossover, n=6, ± standard error) does the source give for `NCC(=O)CCC(=O)O` [5-ALA, 5-aminolevulinic acid] here?
A: The Milk yield was 23.78 ± 1.67 kg/day.

Q: And the “Milk composition: Fat” value [1]?
A: The value was 4.42 ± 0.14%.

Q: And the “Milk composition: Lactose” value [1]?
A: The value was 4.82 ± 0.02%.

Q: And the “Milk composition: Non-fat solid” value [1]?
A: The value was 9.03 ± 0.17%.

Q: And the “Milk composition: Overall solid” value [1]?
A: The value was 13.34 ± 0.28%.

Q: And the “Milk composition: Casein” value [2]?
A: The value was 2.71 ± 0.09 a %.

Q: What about the “Milk composition: Proteins” value [2] of the same molecule?
A: The value was 3.51 ± 0.12 a %.

Q: And the “Lactose compared with Control Groups” value (feed to which 5-ALA was added)?
A: Its value is “no particular differences”.

Q: What about the “Milk fat compared with Control Groups” value (feed to which 5-ALA was added) of the same molecule?
A: The value was “no particular differences”.

Q: What about the “Milk yield compared with Control Groups” value (feed to which 5-ALA was added) of the same molecule?
A: Its value is “no particular differences”.

Q: What about the “Non-fat solid compared with Control Groups” value (feed to which 5-ALA was added) of the same molecule?
A: The value was “no particular differences”.

Q: What about the “Overall solid compared with Control Groups” value (feed to which 5-ALA was added) of the same molecule?
A: The value was “no particular differences”.

Q: What about the “Casein content in milk compared with Control Groups” value [3] of the same molecule?
A: Its value is “increased significantly”.

Q: What about the “Protein content in milk compared with Control Groups” value [3] of the same molecule?
A: The value was “increased significantly”.
